The source of these data is publication PMC6149849, “Cymantrenyl-Nucleobases: Synthesis, Anticancer, Antitrypanosomal and Antimicrobial Activity Studies” (Molecules : A Journal of Synthetic Chemistry and Natural …, 2017).

For data set [1], the system named is human myeloid leukemia HL-60 cells. The data set can be described thus: in vitro. The following applies: human, 72 h. Here is the method: (§1) All of the cultures were maintained at 37 °C in a humidified atmosphere containing 5% of CO2. Toxicity assays were performed, as previously described, with some modifications. In brief, trypanosomes and HL-60 cells were seeded at an initial cell density of 10^4/mL and 5 × 10^4/mL, respectively, in 96-well plates in a final volume of 200 μL culture medium containing various concentrations of test compounds dissolved in 100% DMSO. […] The controls contained DMSO alone. In all of the experiments, the final DMSO concentration was 0.9%. After 24 h incubation, 20 µL of a 0.5 mM resazurin solution prepared in PBS was added and the cultures were incubated for a further 48 h. Resazurin is a vital dye that, when being reduced by living cells, changes its colour from blue to pink. Thus, by measuring absorbance, the proliferation of cells can be easily determined. The change in absorbance was read with a microplate reader using a test wavelength of 570 nm and a reference wavelength of 630 nm. GI50 values were calculated by linear interpolation according to the method described by Huber and Koella. MIC values were determined microscopically.

The nature of a further data set: in vitro. The note with it: human. Here is the method: as §1
The test system of data set [2] is bloodstream forms of T. brucei clone 427-221a. In words: Trypanocidal assay, resazurin viability assay. Type of data set: cell-based, Trypanosoma brucei. Here is the method:
as §1

For data set [3], the system named is S. epidermidis ATCC 12228. In words: Antibacterial liquid microdilution (CLSI M07-A8). Type of data set: cell-based, Staphylococcus epidermidis. The procedure:
(§2) Organometallic compounds play an increasingly important role in the search for new antibacterial agents. We, therefore, thought to investigate also the bactericidal activity of the newly synthesized cymantrenes 1–7, compound C and CymH. The antibacterial activity of the compounds was tested against Gram-positive methicillin-sensitive Staphylococcus aureus (MSSA), methicillin-resistant S. aureus (MRSA), vancomycin-intermediate S. aureus (VISA), S. epidermidis, and Gram-negative Escherichia coli bacterial strains, and expressed as minimal inhibitory concentration (MIC) values (Table 3).
(§3) The antibacterial activity of CymH, 1–7 and C and the reference drugs penicillin G and polymyxin B was tested by the liquid microdilution method under standard conditions using twofold dilution series, as described in the Clinical and Laboratory Standards Institute (CLSI), reference method M07-A8, and expressed as minimal inhibitory concentration (MIC) values. A panel of Gram-positive bacterial strains, S. aureus ATCC® 29213 (sensitive to methicillin, (MSSA)), S. aureus ATCC® 43300 (resistant to methicillin, (MRSA)), S. aureus ATCC 700787™ (intermediate to vancomycin, (VISA)), and S. epidermidis ATCC 12228™, and one Gram-negative, strain E. coli ATCC BAA-198™ (ESBL) were used. In addition, four clinical isolates of S. aureus (MSSA and MRSA) and two clinical isolates of S. epidermidis that were collected from different patients at the Medical University of Warsaw, Poland, were also tested. The bacterial cells were cultivated on tryptic soy agar (TSA) and nutrient agar (NA), according to ATCC recommendations. All of the strains were incubated at 37 °C. Tested compounds were dissolved in DMSO and then serially diluted twofold with cation-adjusted Mueller-Hinton broth (CAMHB). Then, 95 µL of the dilutions were dispensed into microdilution sterile plates (Mar-Four), followed by the addition of 5 µL of bacteria inoculum containing 5 × 10^4 CFU/mL. The final concentrations of the compounds ranged from 512 to 2 µg/mL. Each compound was tested in triplicate, and Penicillin G (8–0.15 µg/mL) and Polymyxin B (256–0.0625 µg/mL) were used as controls. The plates were incubated at 37 °C for 18 to 24 h depending on the bacterial strain. Thereafter, the absorbance was measured at λ = 540 nm and λ = 595 nm using a Spectrostar Omega microplate reader (BMG Labtech, Offenburg, Germany). The MIC value was defined as the lowest concentration of a compound that reduced the growth by 100%.

Data set [4] relates to S. aureus ATCC 700787 (VISA). The data set can be described thus: Antibacterial liquid microdilution (CLSI M07-A8). The class given is cell-based, Staphylococcus aureus. The note with it: 18 to 24 h. Here is the method:
as §2, §3

For data set [5], the system named is S. aureus ATCC 43300 (MRSA). The data set can be described thus: Antibacterial liquid microdilution (CLSI M07-A8). The class given is cell-based, Staphylococcus aureus. The note with it: 18 to 24 h. Here is the method: as §2, §3
In data set [6] the test system is S. aureus ATCC 29213 (MSSA). The data set can be described thus: Antibacterial liquid microdilution (CLSI M07-A8). The note with it: 18 to 24 h. The class given is cell-based, Staphylococcus aureus. Here is the method: as §2, §3
The subject of data set [7] is Clinical S. aureus (MSSA) 30/11. The data set can be described thus: Antibacterial liquid microdilution, clinical isolate. Type of data set: cell-based, Staphylococcus aureus. Here is the method: (§4) This lack of activity against E. coli can be probably explained by an impeded cellular uptake of the compounds through the Gram-negative cell wall that consists of two layers and effective protein efflux pump systems. The antibacterial activities of 1 and C were further tested against four clinical isolates of S. aureus and two clinical isolates of S. epidermidis (Table 4).
as §3

Data set [8] has as its system Clinical S. aureus (MRSA) 31/12. The data set is described as above. The class given is cell-based, Staphylococcus aureus. Here is the method:
as §4, §3

In data set [9] the test system is Clinical S. aureus (MSSA) 26/11. The description is as above. The class given is cell-based, Staphylococcus aureus. Here is the method:
as §4, §3

Data set [10] concerns Clinical S. aureus (MRSA) 44/12. The description is as above. Type of data set: cell-based, Staphylococcus aureus. The procedure: as §4, §3
Data set [11] concerns E. coli ATCC BAA-198 (ESBL). The data set can be described thus: Antibacterial liquid microdilution (CLSI M07-A8). The class given is cell-based, Escherichia coli. Here is the method: as §2, §3
For data set [12], the system named is Clinical S. epidermidis (MSSA) 37/12. In words: Antibacterial liquid microdilution, clinical isolate. The class given is cell-based, Staphylococcus epidermidis. The procedure:
as §4, §3

The subject of data set [13] is Clinical S. epidermidis (MSSA) 43/12. Described as above. Type of data set: cell-based, Staphylococcus epidermidis. Here is the method: as §4, §3

Converted amounts (≈) assume the structure as drawn. Where only a bound is given, the exact number is not on record here.

For `Cc1ccc(C(=O)Nc2ccc(S(=O)(=O)O)c3cc(S(=O)(=O)O)cc(S(=O)(=O)O)c23)cc1NC(=O)c1cccc(NC(=O)Nc2cccc(C(=O)Nc3cc(C(=O)Nc4ccc(S(=O)(=O)O)c5cc(S(=O)(=O)O)cc(S(=O)(=O)O)c45)ccc3C)c2)c1` [Suramin, suramin, reference compound], the “HL-60 MIC” value in data set [1] was greater than 100 µM. The GI50 at 72 h in “in vitro” is greater than 100000 nM. The 50% growth inhibitory concentration (GI50) in [2] (Trypanosoma brucei, 50% growth inhibition) turned out to be 39 ± 3 nM. The molecule further had an MIC in data set [2] (Trypanosoma brucei, concentration at which all cells were killed, determined microscopically) of 0.1 to 1 µM (≈ 0.13 to 1.3 µg/mL). The “Selectivity GI50 Ratio” value in data set [2] (ratio of cytotoxic (HL-60) to trypanocidal (T. brucei) activity) is given as greater than 2564.
Consider `CC1(C)S[C@@H]2[C@H](NC(=O)Cc3ccccc3)C(=O)N2[C@H]1C(=O)O` [penicillin G, reference compound], for which the MIC in [3] (Staphylococcus epidermidis, ATCC12228, 18 to 24 h) was 2 µg/mL (≈ 5.98 µM); in data set [4] (Staphylococcus aureus), 32 µg/mL (≈ 95.7 µM); in data set [5] (Staphylococcus aureus) it was 16 µg/mL (≈ 47.8 µM); in [6] (Staphylococcus aureus), 2 µg/mL (≈ 5.98 µM); in data set [7] (Staphylococcus aureus, MSSA) it was 2 µg/mL (≈ 5.98 µM); in [8] (Staphylococcus aureus, MRSA) it was 32 µg/mL (≈ 95.7 µM). The MIC is 0.5 µg/mL (≈ 1.5 µM) in data set [9] (Staphylococcus aureus, MSSA); 8 µg/mL (≈ 23.9 µM) in data set [10] (Staphylococcus aureus, MRSA); greater than 256 µg/mL in data set [11] (Escherichia coli, ATCCBAA198, 18 to 24 h); 16 µg/mL (≈ 47.8 µM) in data set [12] (Staphylococcus epidermidis, MSSA, read-out: MIC, Clinical S. epidermidis 37/12); 8 µg/mL (≈ 23.9 µM) in data set [13] (Staphylococcus epidermidis, MSSA).
polymyxin B [reference compound]: the “MIC, S. epidermidis ATCC 12228” value in [3] (18 to 24 h) turned out to be 64 µg/mL. The “MIC, S. aureus ATCC 700787 (VISA)” value in data set [4] is greater than 256 µg/mL. In data set [5], the “MIC, S. aureus ATCC 43300 (MRSA)” value was 256 µg/mL. Also, the “MIC, S. aureus ATCC 29213 (MSSA)” value in data set [6] was found to be 256 µg/mL. In addition, in data set [7], the “MIC, Clinical S. aureus (MSSA) 30/11” value came out at 256 µg/mL. Also, the “MIC, Clinical S. aureus (MRSA) 31/12” value in [8] came out at 256 µg/mL. Also, the “MIC, Clinical S. aureus (MSSA) 26/11” value in data set [9] amounted to 256 µg/mL. In [10], the “MIC, Clinical S. aureus (MRSA) 44/12” value worked out at 256 µg/mL. The “MIC, E. coli ATCC BAA-198” value in data set [11] (18 to 24 h) was 0.125 µg/mL. In data set [12], the “MIC, Clinical S. epidermidis (MSSA) 37/12” value was 128 µg/mL. Besides, in data set [13], the “MIC, Clinical S. epidermidis (MSSA) 43/12” value stood at 64 µg/mL.
